{"source": "patent US6814967B2", "about": "“Antibodies to cortistatin: neuropeptides, compositions and methods” (The Scripps Research Institute, priority 1996, dated 2004)", "key": {"[1]": {"test_system": "endogenous somatostatin receptors expressed by GH4 cells", "experiment": "cAMP assay in GH4 cells stimulated with VIP or TRH", "format": "cell-based", "experimental": "To investigate whether cortistatin modulates somatostatin receptor activation, the concentration of cyclic AMP (cAMP) was determined following stimulation of GH4 cells with VIP or TRH in the presence or absence of either cortistatin or somatostatin.\nFor the cAMP assays, GH4 cells were grown under the same conditions as for the binding assays. The cells were washed with MEM without serum, but containing leupeptin, aprotinin and 1 mM 3-isobutyl-methyl-xantine (IBMX). The cells were pretreated with somatostatin-14 and cortistatin-14 for 15 minutes before VIP at 10^−6 M was added or TRH at 10^−7 M. To each well, ^3H cyclic AMP was added before the content was removed, to calculate recovery. For cAMP measurements, a RIA kit (Amersham, Arlington Heights, Ill.) was used according to the instructions of the manufacturer. Each time point represents 2-4 replicates and the experiments were carried out twice."}, "[2]": {"test_system": "somatostatin receptors on GH4 pituitary cells", "experiment": "Displacement of 125I-somatostatin-14 bound to GH4 pituitary cells", "format": "binding", "details": "for displacement of 125I-somatostatin: GH4 cells, control peptides; for Kd: GH4 pituitary cells, four independent experiments, read-out: estimated Kd, displacement of 125I-somatostatin-14 binding", "experimental": "To determine the binding specificity of cortistatin and in view of its similarity to somatostatin, assays to assess the binding of chemically synthesized, linear cortistatin-14 peptide prepared in Example 2 to somatostatin receptors on GH4 pituitary cells were performed.\nGH4 cells, obtained from Dr. Kaare M. Gautvik (University of Oslo) or ATCC, were grown in MEM medium with 12% fetal calf serum in 6-well plates at 10^6 cells/ml. Each well then received 10^6 cpm/ml of ^125I somatostatin-14 (NEN, DuPont, Wilmington, Del.) alone or with increasing concentrations of somatostatin-14 peptide (Sigma) or cortistatin-14 peptide (95%, purified by reverse phase HPLC ranging from 10^−10 M to 10^−6 M. Aprotinin and leupeptin (Sigma; […]) was included as it reduced non-specific binding to 20% of total bound radioactivity. The binding of ^125I somatostatin in the presence of 10^−7 M somatostatin was considered as unspecific binding as described by Schonbrunn et al., J. Biol. Chem., 235:6473-6483 (1978)."}, "[3]": {"test_system": "cerebral cortex (visual cortex) local EEG", "experiment": "Local EEG activity in visual cortex of anesthetized rats, microiontophoretic application", "format": "in vivo, rat", "experimental": "To investigate further whether cortistatin also interacts with cholinergic systems that regulate cortical function, the effects of cortistatin on ACh-induced desynchronization of EEG in the cerebral cortex of anesthetized rats was determined. Thus, ACh and cortistatin was microiontophoretically (100-250 nA) applied on local EEG activity recorded in the visual cortex. For the data shown in FIG. 7G, the results from the experimental groups were derived from averaged EEG spectral activity determinations and expressed as means Å s.e.m. (Asterisk represents significance levels P<0.05 from baseline; two asterisks represent significance levels P<0.05 from ACh; ANOVA)."}, "[4]": {"test_system": "voltage-dependent potassium M current (IM)", "experiment": "Voltage-clamp recording of M current (IM) relaxation in CA1 neurons", "format": "cell-based, rat", "set-up": "dose or concentration left out as unconfirmed", "details": "7 minutes superfusion; CA1 neuron held at −43 mV", "text": "To determine the mechanism of the cortistatin-induced inhibition, we assessed the effect of cortistatin on the M current (IM), a non-inactivating voltage-dependent potassium current seen in hippocampal neurons as described by Halliwell et al., Brain Res., 250:71-92 (1982).\nIn voltage clamp assays, the IM relaxation was observed by applying hyperpolarizing steps (5 to 25 mV) from a holding potential of −43 to −48 mV."}, "[5]": {"test_system": "hippocampal CA1 pyramidal cells", "experiment": "Current-clamp intracellular recording in hippocampal slices", "format": "cell-based, rat", "details": "for time to maximum steady effect (time-to-peak) after onset of the response: hippocampal slice CA1 neurons, superfusion", "experimental": "Somatostatin is known to hyperpolarize central neurons by increasing potassium conductances as described by Inoue et al., J. Physiol., 407:177-198 (1988), including the voltage-dependent potassium M current (see Moore et al., Science, 239:278-280 (1988) and Jacquin et al., Proc. Natl. Acad. Sci., USA, 85:948-952 (1988)). To complete the characterization of the physiological role of cortistatin, assays were performed to determine whether cortistatin had somatostatin-like effects on hippocampal neurons by means of current- and voltage-clamp recordings in the hippocampal slice preparation.\nIntracellular recordings were obtained in rat hippocampal slices using sharp glass micropipettes as previously described by Schweitzer et al., J. Neurosci., 13:2033-2049 (1993). Recordings were made from 11 hippocampal CA1 pyramidal cells with an average resting membrane potential of −70 Å 1 mV (mean Å s.e.m.) and action potential of 103 Å 2 mV. Current-clamp recording of a CA1 neuron manually depolarized to −65 mV (resting membrane potential was −70 mV) to elicit action potential firing (upward deflections, truncated) is shown in FIG. 6A.\nSuperfusion of […] cortistatin-14 peptide (bar above record), prepared as described in Example 3, like somatostatin-14, hyperpolarized these neurons (10 of 11 cells), in association with inhibition of action potential firing, followed by recovery to control levels upon washout of the peptide. Unlike somatostatin, the cortistatin-14-mediated effect developed slowly, reaching a maximum steady effect six to eight minutes after the onset of the response. This contrasted with the time-to-peak of somatostatin′s effect on these neurons under the same experimental conditions that was much shorter (2-3 minutes)."}, "CA1 pyramidal neurons": {"test_system": "CA1 pyramidal neurons", "experiment": "Population spike amplitudes in CA1 in vivo, iontophoretic application, anesthetized rats", "set-up": "species or system rat", "details": "microiontophoretic application, 1 mg/ml in saline; half-maximal and maximal stimulation; P<0.05", "experimental": "The inhibitory effects of cortistatin on the excitability of CA1 pyramidal neurons as viewed by population spike (PS) amplitudes was paralleled in vivo in the anesthetized preparation. For the in vivo studies, male Sprague-Dawley rats were anesthetized with halothane (0.9-1.1%). The commisural pathway was stimulated and elicited field potentials in the CA1 region essentially as described by Steffensen et al., Brain Res., 538:46-53 (1991). Cortistatin (1 mg/ml) was dissolved in saline and administered iontophoretically through one barrel of a multibarreled micropipette. […] Asterisks represent significance levels at P<0.05. The data was compiled with software (LabView Instruments, National Instruments, Austin, Tex.) as described by Steffensen et al., Brain Res., 538:46-53 (1991).\nStimulation of the monosynaptic afferent input to the CA1 region evoked a characteristic population spike (PS) that represents the synchronous firing of pyramidal cells, superimposed on a field synaptic potential waveform as described by Anderson et al., Exp. Brain Res., 13:208-221 (1971)."}, "hippocampal CA1 neurons": {"test_system": "hippocampal CA1 neurons", "experiment": "Paired-pulse (PP) responses in CA1 neurons in vivo, iontophoretic application", "set-up": "species or system rat", "details": "for effect on PP responses (PP inhibition) in CA1: applied alone iontophoretically, ACh 0.9 M, somatostatin 1.5 mM, 80 ms interstimulus interval", "from_the_text": "Stimulation intensity was adjusted after drug treatment to achieve control PS amplitudes before performing PP studies."}, "[6]": {"test_system": "sleep-wake cycle of the rat", "experiment": "Intracerebroventricular administration, EEG and sleep-wake cycle of the rat", "format": "in vivo", "text": "As cortistatin is expressed in interneurons located in the cerebral cortex and hippocampus, its effects on cortical measures of neuronal excitability was next determined in vivo. Up to 6 nmoles of HPLC-purified synthetic cortistatin-14 peptide prepared in Example 3 were infused into the brain ventricles of rats (n=5) and recorded the electroencephalogram (EEG) for four hours after peptide injection. […] Standard methodologies for chronic electrophysiological preparation and data acquisition were used. Procedures for EEG recordings and PP studies are as described by Prospero-Garcia et al., Pharmacol. Biochem. Behav., 49:413 (1994) and Steffensen et al., Brain Res., 652:149 (1994).\nFIGS. 7A-1, 7A-2, 7A-3 and 7A-4 show the effects of the intracerebroventricular administration of cortistatin on the sleep-wake cycle of the rat. FIGS. 7A-1, 7A-2, 7A-3 and 7A-4 respectively illustrate wakefulness, slow-wave sleep 1, slow-wave sleep 2 and REM sleep. The effects of the sleep cycle were assessed with cortistatin-14 dosages at 100 ng, 500 ng, […] as plotted from left to right in the bar graphs as shown against saline control. Asterisks represent significance levels of P<0.05; ANOVA."}, "[7]": {"target": "somatostatin receptor 1 (SSTR1) (Homo sapiens, UniProt P30872)", "sequence (P30872 whole entry, species assumed)": "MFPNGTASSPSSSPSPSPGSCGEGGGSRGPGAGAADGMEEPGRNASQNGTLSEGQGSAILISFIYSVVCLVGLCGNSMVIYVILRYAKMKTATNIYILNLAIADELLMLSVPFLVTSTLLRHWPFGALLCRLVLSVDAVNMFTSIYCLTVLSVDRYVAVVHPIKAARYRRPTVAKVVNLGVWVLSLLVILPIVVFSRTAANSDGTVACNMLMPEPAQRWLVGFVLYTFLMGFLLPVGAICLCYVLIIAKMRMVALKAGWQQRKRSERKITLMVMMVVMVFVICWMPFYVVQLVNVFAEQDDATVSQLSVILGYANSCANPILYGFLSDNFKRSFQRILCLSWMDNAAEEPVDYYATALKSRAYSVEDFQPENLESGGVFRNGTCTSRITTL", "experiment": "Binding studies to cloned somatostatin receptors"}, "SSTR 2-5": {"test_system": "SSTR 2-5", "experiment": "Binding studies to cloned somatostatin receptors", "details": "relative to somatostatin"}, "[8]": {"details": "peptide alone at 10^−6 M, compared to control"}}, "data": [{"compound": "vasoactive intestinal peptide (HSDAVFTDNYTRLRKQMAVKKYLNSILN) [VIP, control peptide and cAMP stimulator (Bachem)]", "values": [{"measurement": "intracellular concentration of cAMP", "setting": "[1]; [8]", "result": "increased"}, {"measurement": "displacement of 125I-somatostatin", "setting": "[2]", "result": "did not show any displacement"}]}, {"compound": "14-residue peptide of SEQ ID NO 8 (PCKNFFWKTFSSCK), same sequence for rat and mouse, chemically synthesized [cortistatin-14]", "values": [{"measurement": "local EEG (averaged EEG power spectra)", "setting": "[3]; applied alone, 100-250 nA, visual cortex, anesthetized rats", "result": "not different from baseline"}, {"measurement": "effect of ACh on local EEG (increase in fast frequency activity)", "setting": "[3]; simultaneous electrophoretic application with ACh", "result": "effectively prevented"}, {"measurement": "intracellular concentration of cAMP", "setting": "[1]; [8]", "result": "no effect"}, {"measurement": "increase of the amplitude of the IM relaxation", "setting": "[4]", "result": 60, "unit": "%"}, {"measurement": "time to maximum steady effect (time-to-peak) after onset of the response", "setting": "[5]", "result": "six to eight"}, {"measurement": "effect on membrane potential of CA1 neurons", "setting": "[5]; superfusion of 1 M, 10 of 11 cells, inhibition of action potential firing, recovery on washout", "result": "hyperpolarized"}, {"measurement": "population spike (PS) amplitudes", "setting": "CA1 pyramidal neurons", "result": "significantly decreased"}, {"measurement": "effect on PP responses (PP inhibition) in CA1", "setting": "hippocampal CA1 neurons", "result": "no significant effects"}, {"measurement": "effect on the ACh-induced reduction of PP inhibition", "setting": "hippocampal CA1 neurons; simultaneous iontophoretic application with ACh, P<0.05", "result": "completely antagonized"}, {"measurement": "EEG cortical slow waves (1-4 Hz)", "setting": "[6]; infused into brain ventricles of rats", "result": "dramatic increase"}, {"measurement": "spontaneous behavior", "setting": "[6]; infused into brain ventricles of rats, compared to saline-injected rats", "result": "clear hypoactive behavior"}, {"measurement": "share of the four hour recording time in slow-wave sleep", "setting": "[6]; intracerebroventricular, 40% in saline-treated control animals", "result": "up to 75%"}, {"measurement": "paradoxical (REM) sleep", "setting": "[6]; intracerebroventricular, highest dose", "result": "significant reduction"}, {"measurement": "Kd", "setting": "[2]", "result": 5, "unit": "nM"}, {"measurement": "affinity for somatostatin receptor 1 (SSTR1)", "setting": "[7]", "result": "comparable to somatostatin"}, {"measurement": "affinity for SSTR 2-5", "setting": "SSTR 2-5", "result": "far lesser affinity"}]}, {"compound": "C[C@H](N)C(=O)NCC(=O)N[C@H]1CSSC[C@@H](C(=O)O)NC(=O)[C@H](CO)NC(=O)[C@H]([C@@H](C)O)NC(=O)[C@H](Cc2ccccc2)NC(=O)[C@H]([C@@H](C)O)NC(=O)[C@H](CCCCN)NC(=O)[C@H](Cc2c[nH]c3ccccc23)NC(=O)[C@H](Cc2ccccc2)NC(=O)[C@H](Cc2ccccc2)NC(=O)[C@H](CC(N)=O)NC(=O)[C@H](CCCCN)NC1=O", "note": "[somatostatin-14, reference compound]", "values": [{"measurement": "intracellular concentration of cAMP", "setting": "[1]; [8]", "result": "no effect"}, {"measurement": "time to maximum steady effect (time-to-peak) after onset of the response", "setting": "[5]", "result": "2 to 3", "unit": "min"}, {"measurement": "effect on PP responses (PP inhibition) in CA1", "setting": "hippocampal CA1 neurons", "result": "markedly decreased PP inhibition"}, {"measurement": "Kd", "setting": "[2]", "result": 5, "unit": "nM"}]}, {"compound": "thryoid releasing hormone (QHP) [TRH, control peptide and cAMP stimulator (Calbiochem)]", "values": [{"measurement": "intracellular concentration of cAMP", "setting": "[1]; peptide alone at 10^−7 M", "result": "increased"}, {"measurement": "displacement of 125I-somatostatin", "setting": "[2]", "result": "did not show any displacement"}]}]}
